Measured values reported in US20070197452A1, “Treatment of amyloid-related diseases” (priority 2006, published 2007).
“Also recorded” adds a separate entry of the source. Marks after values point to notes of the source that are not given here.

Experiments:
Type in all cases: in vivo, mouse
Aβ42 = target: T1, Aβ42 (Homo sapiens, UniProt P05067); test: Cerebral Aβ42 content of hemi-brain homogenates (commercial kit); details: for brain Aβ42 levels: TgCRND8 mice with pre-existing disease, 28 days from 5 months of age
T1 construct: analyzed for Aβ40 and Aβ42 using commercially available kits; from tissue; host or cells: hemi-brain homogenates and plasma of TgCRND8 transgenic mice
T1 sequence (P05067 672-713 limits assumed): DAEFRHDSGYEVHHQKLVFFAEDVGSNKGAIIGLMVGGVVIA
Description: Plasma and Cerebral Aβ Content. Hemi-brain samples were homogenized in a buffered sucrose solution, followed by either 0.4% diethylamine/100 mM NaCl for soluble Aβ levels or cold formic acid for the isolation of total Aβ. After neutralization, the samples were diluted and analyzed for Aβ40 and Aβ42 using commercially available kits (BIOSOURCE International). Each hemisphere was analyzed in triplicate and the mean values±SEM reported. Western blot analyses were performed on all fractions using urea gels for Aβ species analyses. Aβ was detected using 6E10 (BIOSOURCE International) and Enhanced Chemiluminenscence (Amersham).
Plasma and cerebral Aβ content. Hemi-brain samples were homogenized in a buffered sucrose solution, followed by either a mixture of 0.4% diethylamine and 100 mM NaCl for soluble Aβ levels or cold formic acid for the isolation of total Aβ. After neutralization, samples were diluted and analyzed for Aβ40 and Aβ42 using commercially available kits (Biosource International). Each hemisphere was analyzed in triplicate and the mean±s.e.m. was reported. Western blot analyses were carried out on all fractions using urea gels for Aβ species analyses. Aβ was detected using 6E10 (Biosource International).

TgCRND8 mice [1] = test: Cerebral amyloid plaque burden (anti-Aβ immunostaining, image analysis); details: for amyloid burden in hippocampus and cerebral cortex: TgCRND8 mice at six months of age
Description: Cerebral amyloid burden. […] To generate sets of systematic uniform random sections, 5 μm serial sections were collected across the entire hemisphere. Sets of sections at 50 μm intervals were used for analyses (10-14 sections/set). Plaques were identified after antigen retrieval with formic acid, and incubation with primary anti-Aβ antibody (Dako M-0872), followed by secondary antibody (Dako StreptABCcomplex/horseradish kit). End products were visualized with DAB and were counter-stained with luxol fast blue. Amyloid plaque burden was assessed with Leco IA-3001 image analysis software interfaced with Leica microscope and Hitachi KP-M1U CCD video camera. Openlab imaging software (Improvision, Lexington, Mass.) was then used to convert micrographs to binary images for plaque number and plaque area determinations. Vascular amyloid burden was defined as amyloid originating from or surrounding blood vessels and was analysed similarly. Cerebral Aβ burden. […] Sets of sections at […] intervals for analyses (10-14 sections per set) were used. Plaques with primary Aβ-specific antibody (Dako M-0872) were identified and visualized with DAB. AP plaque burden was assessed with Openlab imaging software (Improvision) and used to convert micrographs to binary images for determinations of plaque number and plaque area. Vascular Aβ burden was defined as Aβ plaques originating from or surrounding blood vessels and was analyzed similarly. Cerebral Aβ burden. […] To generate sets of systematic uniform random sections, 5 μm serial sections were collected across the entire hemisphere. Sets of sections at 50 μm intervals were used for analyses (10-14 sections/set). Plaques were identified after antigen retrieval with formic acid, and incubation with primary anti-Aβ antibody (Dako M-0872), followed by secondary antibody (Dako StreptABCcomplex/horseradish kit). End products were visualized with DAB and were counter-stained with luxol fast blue. Aβ plaque burden was assessed with Leco IA-3001 image analysis software interfaced with Leica microscope and Hitachi KP-M1U CCD video camera. Openlab imaging software (Improvision, Lexington, Mass.) was then used to convert micrographs to binary images for plaque number and plaque area determinations. Vascular Aβ burden was defined as Aβ plaques originating from or surrounding blood vessels and was analyzed similarly.

TgCRND8 mice [2] = test: Morris water maze spatial reference memory test; details: for spatial learning performance compared with non-Tg littermates / spatial learning performance compared with untreated TgCRND8 littermates: 28 days of treatment from 5 months of age, tested at 6 months; for cognitive performance compared with non-Tg mice / cognitive performance compared with untreated TgCRND8 mice / cognitive performance compared with non-Tg littermates: prophylactic
Description: Behavioural tests: Morris Water Maze testing was performed as previously described. After non-spatial pre-training, mice underwent place discrimination training for 5 days with 4-trials per day, followed by a cued visible platform to rule out general motivational, learning deficits and motor problems, and a probe trial to evaluate memory. […] Open field test for motor activity was preformed as described previously. Duration of walking, pausing and grooming were analyzed as indices of spontaneous locomotor activity. Sensorimotor function was examined with an EconomexTM accelerating rotarod (Columbus Instruments, Columbus, Ohio), as described elsewhere. The rod was set to accelerate at a rate of 0.2 r.p.m./s, from an initial, constant speed of 5 r.p.m. Latency to fall was recorded in four daily trials, conducted at 30 min intervals. All mice were trained for seven days before testing. The test day performance score for each animal was obtained by summing its latency to fall over the four trials Behavioral tests. Morris water maze testing was carried out as previously described. After nonspatial pretraining, mice underwent place discrimination training for 5 d with four trials per day, followed by a cued visible platform trial and a probe trial. An open-field test for motor activity was carried out as described previously. Sensorimotor function was assessed with an Economex accelerating rotarod (Columbus Instruments) as previously described. Behavioural tests. Morris Water Maze testing was performed as previously described. After non-spatial pre-training, mice underwent place discrimination training for 5 days with 4-trials per day, followed by a cued visible platform to rule out general motivational, learning deficits and motor problems, and a probe trial to evaluate memory. The probe trial was conducted at 72 h after the last testing, and used an annulus-crossing index to assess spatial recall. The annulus-crossing index measures the number of passes over the original platform position relative to passes over the other three quadrants. […] Open field test for motor activity was performed as described previously

[3] = 1 month Treatment: TgCRND8 mice, oral from 5 to 6 months of age
[4] = 4-month Prophylactic: TgCRND8 mice, oral from 6 weeks to 4 months of age
[5] = 6-month Prophylactic: TgCRND8 mice, oral from 6 weeks to 6 months of age
[6] = TgCRND8 mice treated for 2 months, ending at 7 months of age
[7] = TgCRND8 mice with pre-existing disease, 28 days from 5 months of age
[8] = TgCRND8 mice, 28 day course at 5 months of age, vs untreated
[9] = TgCRND8 mice, oral, 28 days from 5 months of age, analysed at 6 months
[10] = TgCRND8 mice, prophylactic, 6 months of age
[11] = listed as scyllocyclohexanehexol
[12] = TgCRND8 mice, oral, 28 days from 5 months of age, analysed at 6 months, listed as Epi-cyclohexanchexol

SMILES: OC1C(O)C(O)C(O)C(O)C1O (stereo not shown) [scyllo-cyclohexanehexol, 1,3,5/2,4,6-(scyllo-) cyclohexanehexol]
- brain Aβ42 levels (Aβ42): reduced levels
- Mean Plaque Size (μm^2) (TgCRND8 mice [1]; [3]): 336 ± 6* μm^2
- Total Plaque Area (μm^2) (TgCRND8 mice [1]; [3]): 420027 ± 14986* μm^2
- Mean Plaque Size (μm^2) (TgCRND8 mice [1]; [4]): 103 ± 4* μm^2
- Total Plaque Area (μm^2) (TgCRND8 mice [1]; [4]): 63847 ± 2895 μm^2
- Mean Plaque Size (μm^2) (TgCRND8 mice [1]; [5]): 339 ± 10† μm^2
- Total Plaque Area (μm^2) (TgCRND8 mice [1]; [5]): 262379 ± 5373† μm^2
- amyloid burden in hippocampus and cerebral cortex (TgCRND8 mice [1]): significantly decreased amyloid burden
- amyloid burden in hippocampus and cerebral cortex (TgCRND8 mice [1]; listed as AZD-103): significantly decreased amyloid burden
- effect on pathology (TgCRND8 mice [1]; [6]): Sustained effects
- percent area of the brain covered with plaques (TgCRND8 mice [1]; [7]): significantly reduced
- plaque number (TgCRND8 mice [1]; [7]): significantly reduced
- plaque size (TgCRND8 mice [1]; [7]): significantly reduced
- plaque count, dose-response (TgCRND8 mice [1]; TgCRND8 mice, 0.3-30 mg/kg/d orally, 4 months of age, 6F3D immunostaining): dose-dependent decrease; also recorded: improvement
- percent area of the brain covered by plaques, reduction (TgCRND8 mice [1]; [8]): 14±0.5 % reduction
- plaque number reduction (TgCRND8 mice [1]; [8]): 13±0.3 % reduction
- plaque size reduction (TgCRND8 mice [1]; [8]): 16±0.4 % reduction
- plaque burden in hippocampus (TgCRND8 mice [1]; TgCRND8 mice, one month of treatment from 5 months of age): lower plaque burden
- Mean Plaque Size (μm^2) (TgCRND8 mice [1]; [9]): 336 ± 6* μm^2
- Total Plaque Area (μm^2) (TgCRND8 mice [1]; [9]): 420027 ± 14986* μm^2
- Total Plaque Count (TgCRND8 mice [1]; [9]): 1260 ± 27
- mean plaque size (TgCRND8 mice [1]; [10]): smaller mean plaque size
- all measures of plaque burden (TgCRND8 mice [1]; TgCRND8 mice, prophylactic, at 4 and 6 months of age): sustained decrease in all measures of plaque burden
- spatial learning performance compared with non-Tg littermates (TgCRND8 mice [2]): indistinguishable from that of their non-Tg littermates; also recorded: indistinguishable from nontransgenic littermates
- spatial learning performance compared with untreated TgCRND8 littermates (TgCRND8 mice [2]): significantly better behavioural performance compared to untreated TgCRND8 mice; also recorded: significantly better than untreated TgCRND8 littermates
- spatial learning performance compared with non-Tg littermates (TgCRND8 mice [2]; listed as AZD-103): indistinguishable from non-Tg littermates
- spatial learning performance compared with untreated TgCRND8 littermates (TgCRND8 mice [2]; listed as AZD-103): significantly better than untreated TgCRND8 littermates
- spatial learning performance compared with non-Tg littermates (TgCRND8 mice [2]; [11]): indistinguishable from nontransgenic littermates
- spatial learning performance compared with untreated TgCRND8 littermates (TgCRND8 mice [2]; [11]): improved behavioral performance
- effect on cognition (TgCRND8 mice [2]; [6]): Sustained effects
- spatial memory, dose-response (TgCRND8 mice [2]; TgCRND8 mice, 0.3-30 mg/kg/d orally, tested at 4 months of age): dose-dependent improvement
- cognitive performance compared with non-Tg mice (TgCRND8 mice [2]; 6 weeks to 4 months of age): approached that of nontransgenic mice
- cognitive performance compared with untreated TgCRND8 mice (TgCRND8 mice [2]; 6 weeks to 4 months of age): significant behavioral improvement
- cognitive performance compared with non-Tg mice (TgCRND8 mice [2]; 6 weeks to 4 months of age, listed as AZD-103): approached that of non-Tg mice
- cognitive performance compared with non-Tg mice (TgCRND8 mice [2]; 6 weeks to 4 months of age, listed as Scyllo-cyclohexanehexol): indistinguishable from nontransgenic littermates on days 4 and 5 of testing
- cognitive performance compared with non-Tg littermates (TgCRND8 mice [2]; 6 weeks to 6 months of age): indistinguishable from nontransgenic littermates; also recorded: approached that of nontransgenic littermates
- cognitive performance compared with untreated TgCRND8 mice (TgCRND8 mice [2]; 6 weeks to 6 months of age): significantly better cognitive function compared to untreated TgCRND8 littermates

SMILES: OC1C(O)C(O)C(O)C(O)C1O (stereo not drawn) [epi-cyclohexanehexol, 1,2,3,4,5/6-(epi-) cyclohexanehexol, reference compound]
- brain Aβ42 levels (Aβ42): no significant impact; also recorded: no significant effect
- reduction of brain Aβ42 (range given for both Aβ40 and Aβ42) (Aβ42; TgCRND8 mice, prophylactic treatment, 4 months of age): 22-62 % reduction
- Mean Plaque Size (μm^2) (TgCRND8 mice [1]; [3]): 346 ± 6 μm^2
- Total Plaque Area (μm^2) (TgCRND8 mice [1]; [3]): 459706 ± 49966 μm^2
- Mean Plaque Size (μm^2) (TgCRND8 mice [1]; [4]): 95 ± 43 μm^2
- Total Plaque Area (μm^2) (TgCRND8 mice [1]; [4]): 65042 ± 5199 μm^2
- Mean Plaque Size (μm^2) (TgCRND8 mice [1]; [5]): 370 ± 9 μm^2
- Total Plaque Area (μm^2) (TgCRND8 mice [1]; [5]): 380456 ± 13498 μm^2
- amyloid burden in hippocampus and cerebral cortex (TgCRND8 mice [1]): modest effect on amyloid burden
- amyloid burden in hippocampus and cerebral cortex (TgCRND8 mice [1]; listed as AZD-102): modest effect on amyloid burden
- percent area of the brain covered with plaques (TgCRND8 mice [1]; [7]): no significant impact; also recorded: no significant effect
- plaque number (TgCRND8 mice [1]; [7]): no significant impact; also recorded: no significant effect
- Mean Plaque Size (μm^2) (TgCRND8 mice [1]; [12]): 346 ± 6 μm^2
- Total Plaque Area (μm^2) (TgCRND8 mice [1]; [12]): 459706 ± 49966 μm^2
- Total Plaque Count (TgCRND8 mice [1]; [12]): 1342 ± 114
- mean plaque size (TgCRND8 mice [1]; TgCRND8 mice, prophylactic, 4 months of age): significant decrease in mean plaque size
- mean plaque size (TgCRND8 mice [1]; [10]): reductions were not sustained
- spatial learning performance compared with non-Tg littermates (TgCRND8 mice [2]): significantly poorer than the performance of their non-Tg littermates; also recorded: remained impaired with respect to non-Tg littermates; also recorded: remained impaired with respect to nontransgenic littermates
- spatial learning performance compared with untreated TgCRND8 littermates (TgCRND8 mice [2]): not significantly different from that of untreated TgCRND8 littermates; also recorded: ineffective at reversing behavioral deficits
- spatial learning performance compared with non-Tg littermates (TgCRND8 mice [2]; listed as AZD-102): remained impaired with respect to non-Tg littermates
- spatial learning performance compared with untreated TgCRND8 littermates (TgCRND8 mice [2]; listed as AZD-102): not different from untreated TgCRND8 littermates
- cognitive performance compared with non-Tg mice (TgCRND8 mice [2]; 6 weeks to 4 months of age): significantly different from treated and untreated nontransgenic mice
- cognitive performance compared with untreated TgCRND8 mice (TgCRND8 mice [2]; 6 weeks to 4 months of age): significant behavioral improvement
- cognitive performance compared with non-Tg mice (TgCRND8 mice [2]; 6 weeks to 4 months of age, listed as AZD-102): significantly different from treated and untreated non-Tg mice
- cognitive performance compared with non-Tg littermates (TgCRND8 mice [2]; 6 weeks to 6 months of age): indistinguishable from nontransgenic littermates; also recorded: approached that of nontransgenic littermates
- cognitive performance compared with untreated TgCRND8 mice (TgCRND8 mice [2]; 6 weeks to 6 months of age): significantly better cognitive function compared to untreated TgCRND8 littermates
- cognitive performance compared with non-Tg littermates (TgCRND8 mice [2]; 6 weeks to 6 months of age, listed as AZD-102): approached that of non-Tg littermates
